The text below walks through data of PubChem BioAssay AID328 (DTP/NCI, 2004).

“And” between values parts separate entries of the source, which are not always exact repeats. Equal entries are not always repeated. Inconclusive results and toxic doses are left out.

This assay deals with BDF1 mice, P388 leukemia ip, median survival T/C. The assay is described as follows: NCI In Vivo Anticancer Drug Screen. Data for tumor model P388 Leukemia (intraperitoneal) in B6D2F1 (BDF1) mice. The note with it: endpoint: median survival time, higher = longer survival. The procedure, abridged:
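Each value expresses how treatment altered survival: treated-mouse outcome over vehicle-mouse outcome, both groups bearing the transplanted tumour.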

[1] abbreviates: dose: 12.5 mg/kg/injection, schedule: Q01DX009 (ip), vehicle: saline with Tween-80.
The mark [2] stands for this setting: dose: 25.0 mg/kg/injection, schedule: Q01DX009 (ip), vehicle: saline with Tween-80.
Setting [3] is: dose: 25.0 mg/kg/injection, schedule: Q04DX003 (ip), vehicle: saline with Tween-80.
Setting [4] is: dose: 50.0 mg/kg/injection, schedule: Q01DX009 (ip), vehicle: saline with Tween-80.
Setting [5] is: dose: 100.0 mg/kg/injection, schedule: Q01DX009 (ip), vehicle: saline with Tween-80.
The mark [6] stands for this setting: dose: 100.0 mg/kg/injection, schedule: Q04DX003 (ip), vehicle: saline with Tween-80.
Where [7] appears, read: dose: 200.0 mg/kg/injection, schedule: Q04DX003 (ip), vehicle: saline with Tween-80.
Where [8] appears, read: dose: 200.0 mg/kg/injection, schedule: Q01DX009 (ip), vehicle: saline with Tween-80.
[9] abbreviates: dose: 400.0 mg/kg/injection, schedule: Q04DX003 (ip), vehicle: saline with Tween-80.
[10] abbreviates: dose: 100.0 mg/kg/injection, schedule: Q01DX009 (ip), vehicle: Klucel (hydroxypropylcellulose) (HPC).
[11] abbreviates: dose: 100.0 mg/kg/injection, schedule: Q04DX003 (ip), vehicle: Klucel (hydroxypropylcellulose) (HPC).
The mark [12] stands for this setting: dose: 200.0 mg/kg/injection, schedule: Q01DX009 (ip), vehicle: Klucel (hydroxypropylcellulose) (HPC).
Setting [13] is: dose: 200.0 mg/kg/injection, schedule: Q04DX003 (ip), vehicle: Klucel (hydroxypropylcellulose) (HPC).
Where [14] appears, read: dose: 400.0 mg/kg/injection, schedule: Q01DX009 (ip), vehicle: Klucel (hydroxypropylcellulose) (HPC).
The mark [15] stands for this setting: dose: 50.0 mg/kg/injection, schedule: Q04DX003 (ip), vehicle: saline.
Where [16] appears, read: dose: 100.0 mg/kg/injection, schedule: Q04DX003 (ip), vehicle: saline.
Where [17] appears, read: dose: 6.25 mg/kg/injection, schedule: Q01DX009 (ip), vehicle: saline with Tween-80.
Where [18] appears, read: dose: 25.0 mg/kg/injection, schedule: Q01DX009 (ip), vehicle: saline.
The mark [19] stands for this setting: dose: 50.0 mg/kg/injection, schedule: Q01DX009 (ip), vehicle: saline.
[20] abbreviates: dose: 100.0 mg/kg/injection, schedule: Q01DX009 (ip), vehicle: saline.
Where [21] appears, read: dose: 100.0 mg/kg/injection, schedule: Q01DX001 (ip), vehicle: saline with Tween-80.
Setting [22] is: dose: 200.0 mg/kg/injection, schedule: Q01DX001 (ip), vehicle: saline with Tween-80.
[23] abbreviates: dose: 400.0 mg/kg/injection, schedule: Q01DX001 (ip), vehicle: saline with Tween-80.

Consider `CCOCc1nc2nc(Cl)c(Cl)nc2[nH]1`, for which the T/C is 89 % of control and 99 % of control under setting [1]; 89 % of control and 100 % of control under setting [2]; 100 % of control under setting [3]; 86 % of control and 104 % of control and 105 % of control under setting [4]; 98 % of control (dose: 50.0 mg/kg/injection, schedule: Q04DX003 (ip), vehicle: saline with Tween-80); 100 % of control under setting [5]. Further, the T/C under setting [6] is 98 % of control; the T/C under setting [7] is 89 % of control and 104 % of control.
`COc1ccc(/C=C/C(=O)c2ccc(Cl)cc2)c(OC)c1`: the T/C by setting is: under setting [2], 95 % of control; under setting [4], 100 % of control; under setting [5], 109 % of control; under setting [6], 109 % of control; under setting [8], 100 % of control; under setting [7], 95 % of control. Further, under setting [9], the T/C is 90 % of control.
`Cc1ccc(NC(=S)N2CCC(CCCC3CCN(C(=S)Nc4ccc(C)c(C)c4)CC3)CC2)cc1C`: the T/C is 100 % of control under setting [10]; 95 % of control under setting [11]; 90 % of control under setting [12]; 95 % of control under setting [13]; 90 % of control under setting [14]; 100 % of control (dose: 400.0 mg/kg/injection, schedule: Q04DX003 (ip), vehicle: Klucel (hydroxypropylcellulose) (HPC)).
Regarding `C/C(=C\c1ccccc1)C(C)(C)C(=O)O`, the T/C reads like this: under setting [4], 102 % of control; under setting [5], 96 % of control; under setting [8], 99 % of control.
`COC(OC)C1(O)CC(C(C)C)OC(=O)N1` (stereo unspecified): the T/C reads like this: under setting [15], 97 % of control; under setting [16], 105 % of control.
As for `COC(=O)/C(=C1/OC(=O)C(c2ccccc2)=C1O)c1ccccc1`, the T/C reads like this: under setting [17], 100 % of control; (dose: 11.0 mg/kg/injection, schedule: Q01DX009 (ip), vehicle: saline with Tween-80) 115 % of control; under setting [1], 90 % of control; (dose: 16.5 mg/kg/injection, schedule: Q01DX009 (ip), vehicle: saline with Tween-80) 105 % of control; under setting [2], 109 % of control and 112 % of control; (dose: 37.5 mg/kg/injection, schedule: Q01DX009 (ip), vehicle: saline with Tween-80) 95 % of control. The T/C under setting [4] is 100 % of control.
As to `CS(=O)CC(O)(c1ccc(F)cc1)C1CC1` (stereo unspecified), the T/C under setting [4] was 99 % of control and the T/C under setting [5] is 103 % of control.
Regarding `COC(=O)C(=O)[C@@H](O)[C@H](O)[C@@H](O)CO`, the T/C runs as follows: under setting [10], 100 % of control; under setting [12], 113 % of control; under setting [14], 109 % of control.
In the case of `CC(=N\O)/C(C)=N/O.CC(=N\O)/C(C)=N/O.[Cl][Rh][Cl]`, the T/C under setting [18] was 94 % of control; the T/C under setting [19] is 119 % of control; the T/C under setting [20] was 95 % of control and 119 % of control; the T/C (dose: 200.0 mg/kg/injection, schedule: Q01DX009 (ip), vehicle: saline) was 100 % of control.
For `CCCN1CCN(c2ccc([N+](=O)[O-])c3no[n+]([O-])c23)CC1`, the T/C is, setting by setting: (dose: 2.5 mg/kg/injection, schedule: Q01DX009 (ip), vehicle: saline with Tween-80) 122 % of control; (dose: 10.0 mg/kg/injection, schedule: Q01DX009 (ip), vehicle: saline with Tween-80) 155 % of control.
As for `OCCN=Cc1ccccc1`, the T/C reads like this: under setting [6], 100 % of control; under setting [7], 100 % of control.
Take `COc1ccc(CNc2cc(C(O)CNC(C)(C)C)ccc2O)cc1` (stereo unspecified): the T/C under setting [17] was 105 % of control, the T/C under setting [1] is 102 % of control and the T/C under setting [2] is 114 % of control.
As to `COc1cc(C=O)c(C=O)cc1OC`, the T/C is 110 % of control (dose: 6.25 mg/kg/injection, schedule: Q04DX003 (ip), vehicle: saline with Tween-80); 106 % of control (dose: 12.5 mg/kg/injection, schedule: Q04DX003 (ip), vehicle: saline with Tween-80); 106 % of control under setting [3]; 97 % of control under setting [6].
As to `Cc1cc(=O)[nH]c2cc(Br)ccc12`, the T/C under setting [21] is 104 % of control, the T/C under setting [22] was 90 % of control and the T/C under setting [23] was 90 % of control.
With `O=C1N/C(=N\O)S/C1=C/c1ccc2c(c1)OCO2`, the T/C by setting is: under setting [21], 89 % of control; under setting [22], 95 % of control; under setting [23], 105 % of control.
`Cc1ccc2c(ccc(C)[n+]2C)c1`: the T/C was 183 % of control (dose: 67.0 mg/kg/injection, schedule: Q01DX009 (ip), vehicle: saline) and 150 % of control under setting [20].
Turning to `CCC(C)C(NC(=O)OCc1ccccc1)C(=O)ON1C(=O)CCC1=O` (stereo unspecified), the T/C is, setting by setting: under setting [6], 118 % of control; under setting [9], 109 % of control.
For the compound `COC(=O)c1c(OC)ccc2c1CC1C3Nc4ccccc4C3CCN1C2` (stereo unspecified), the T/C runs as follows: (dose: 50.0 mg/kg/injection, schedule: Q04DX003 (ip), vehicle: saline sonified) 100 % of control; (dose: 100.0 mg/kg/injection, schedule: Q04DX003 (ip), vehicle: saline sonified) 100 % of control; (dose: 200.0 mg/kg/injection, schedule: Q04DX003 (ip), vehicle: saline sonified) 100 % of control.
For `CC(=O)OC1CC2c3ccccc3C1c1cccc[n+]12` (stereo unspecified), the T/C is 87 % of control (dose: 2.34 mg/kg/injection, schedule: Q01DX009 (ip), vehicle: Klucel (hydroxypropylcellulose) (HPC)); 91 % of control (dose: 4.68 mg/kg/injection, schedule: Q01DX009 (ip), vehicle: Klucel (hydroxypropylcellulose) (HPC)); 91 % of control (dose: 9.37 mg/kg/injection, schedule: Q01DX009 (ip), vehicle: Klucel (hydroxypropylcellulose) (HPC)); 87 % of control (dose: 18.75 mg/kg/injection, schedule: Q01DX009 (ip), vehicle: Klucel (hydroxypropylcellulose) (HPC)).
For the compound `CS(=O)(=O)OCCN(CCOS(C)(=O)=O)c1ccc(/C=N/Nc2ncnc3nc[nH]c23)cc1`, the T/C runs as follows: (dose: 3.13 mg/kg/injection, schedule: Q04DX003 (ip), vehicle: saline with Tween-80) 120 % of control; (dose: 66.0 mg/kg/injection, schedule: Q04DX003 (ip), vehicle: saline with Tween-80) 156 % of control; under setting [6], 168 % of control and 182 % of control; (dose: 150.0 mg/kg/injection, schedule: Q04DX003 (ip), vehicle: saline with Tween-80) 165 % of control; under setting [7], 159 % of control.
As for `N#Cc1cccc(CC(O)(c2ccccc2)c2ccccc2)c1`, the T/C by setting is: under setting [4], 89 % of control; under setting [5], 87 % of control; under setting [8], 95 % of control.
On to `O=C1CCCN1.O=C1CCCN1.[Br][Co][Br]`, for which the T/C reads like this: under setting [18], 108 % of control; (dose: 44.0 mg/kg/injection, schedule: Q01DX009 (ip), vehicle: saline) 109 % of control; under setting [19], 113 % of control; under setting [15], 105 % of control; under setting [16], 111 % of control.
As to `O=C(c1ccccc1Br)C(Br)C(Br)c1ccccc1` (stereo unspecified), the T/C reads like this: under setting [11], 120 % of control; under setting [13], 110 % of control.
As for `CNc1ccc(C(=O)O)c(Cl)c1`, the T/C runs as follows: (dose: 75.0 mg/kg/injection, schedule: Q04DX003 (ip), vehicle: saline) 100 % of control; (dose: 150.0 mg/kg/injection, schedule: Q04DX003 (ip), vehicle: saline) 95 % of control; (dose: 300.0 mg/kg/injection, schedule: Q04DX003 (ip), vehicle: saline) 100 % of control.
Take `COc1ccc(C(OC)C2CCCCC2N2CCCCC2)cc1` (stereo unspecified): the T/C was 90 % of control (dose: 0.5 mg/kg/injection, schedule: Q01DX009 (ip), vehicle: Klucel (hydroxypropylcellulose) (HPC)); 101 % of control (dose: 1.0 mg/kg/injection, schedule: Q01DX009 (ip), vehicle: Klucel (hydroxypropylcellulose) (HPC)); 98 % of control (dose: 2.0 mg/kg/injection, schedule: Q01DX009 (ip), vehicle: Klucel (hydroxypropylcellulose) (HPC)).
